Measured values: ChEMBL document CHEMBL5356930, “Small-molecule inhibitors of bacterial-producing metallo-β-lactamases: insights into their resistance mechanisms and biochemical analyses of their activities” (RSC Med Chem, 2023)
Converted amounts (≈) assume the structure as drawn. Values belong to the compound of their own block, whether it stands above or below them.

Columns and labels:
[1] = molecular target: T1, Metallo-beta-lactamase type 2 (Bacteria, UniProt C7C422); experiment: Inhibition of wildtype bacterial NDM-1 (unknown origin) expressed in Escherichia coli BL21(DE3) cells using nitrocefin as substrate incubated for 20 mins by absorbance based assay
Enterobacteriaceae [2] = experiment: Antibacterial activity against NDM-1-producing Enterobacteriaceae; format: functional
[3] = molecular target: T1, Metallo-beta-lactamase type 2; experiment: Binding affinity to wildtype bacterial NDM-1 (unknown origin) expressed in Escherichia coli BL21(DE3) cells assessed as dissociation constant
[4] = Cytotoxicity against human HepG2 cells incubated for 24 hrs by AlamarBlue-based assay; format: toxicity, cell-based
[5] = Inhibition of bacterial Metallo-beta-lactamase GIM-1 using nitrocefin as substrate; set-up: species or system Bacteria
[6] = Inhibition of bacterial Metallo-beta-lactamase VIM-2 (unknown origin); set-up: species or system Bacteria
[7] = Cytotoxicity against human HEK293 cells incubated for 24 hrs by MTT assay; format: toxicity, cell-based
Enterobacteriaceae [8] = experiment: Synergistic antibacterial activity against NDM-1-producing Carbapenem-resistant Enterobacteriaceae assessed as fractional inhibitory concentration index in presence of meropenem; format: functional
[9] = molecular target: T1, Metallo-beta-lactamase type 2; experiment: Inhibition of bacterial NDM-1 (unknown origin) using nitrocefin as substrate
[10] = molecular target: T1, Metallo-beta-lactamase type 2; experiment: Binding affinity to bacterial NDM-1 (unknown origin) using nitrocefin as substrate assessed as inhibition constant
Vero C1008 = experiment: Cytotoxicity against African green monkey Vero E6 cells at 40 ug/ml relative to control; format: toxicity, cell-based; details: chlorocebus sabaeus, at 40 µg/mL
Escherichia coli [11] = experiment: Synergistic activity against NDM-1-producing engineered Escherichia coli assessed as fractional inhibition concentration index in presence of meropenem; format: functional
Escherichia coli [12] = experiment: Synergistic activity against multiple NDM-1-producing engineered Escherichia coli clinical isolate assessed as fractional inhibition concentration index in presence of meropenem; format: functional
[13] = molecular target: T1, Metallo-beta-lactamase type 2; experiment: Inhibition of bacterial NDM-1 (unknown origin)
L929 = experiment: Cytotoxicity against mouse L929 cells at 40 ug/ml relative to control; format: toxicity, cell-based; details: at 40 µg/mL
[14] = Acute toxicity in ip dosed CD1 mouse assessed as lethal dose measured for 7 days; format: organism-based; details: in vivo, time 7 day
[15] = Acute toxicity in iv dosed CD1 mouse assessed as lethal dose measured for 7 days; format: organism-based; details: in vivo, time 7 day
Klebsiella pneumoniae = experiment: Synergistic activity against NDM-1/VIM-1-producing Klebsiella pneumoniae MS5674 assessed as fractional inhibition concentration index in presence of meropenem by checkerboard assay; format: functional
HeLa = experiment: Cytotoxicity against human HeLa cells at >1000 uM incubated for 24 hrs by Celltiter assay relative to control; format: toxicity, cell-based
[16] = Binding affinity to bacterial Metallo-beta-lactamase IMP-1 (unknown origin) expressed in Escherichia coli BL21(DE3) cells assessed as inhibition constant; set-up: species or system Bacteria
[17] = molecular target: Angiotensin-converting enzyme (Homo sapiens, UniProt P12821); experiment: Inhibition of angiotensin-converting enzyme (unknown origin)
Escherichia coli [18] = experiment: Synergistic activity against IMP-1 producing engineered Escherichia coli NUBL-24 assessed as fractional inhibition concentration index incubated for 16 to 20 hrs in presence of meropenem by CLSI-based microdilution method; format: functional; details: time 16-20 hrs
[19] = Binding affinity to bacterial Metallo-beta-lactamase VIM-2 (unknown origin) expressed in Escherichia coli BL21(DE3) cells assessed as inhibition constant; set-up: species or system Bacteria
Escherichia coli [20] = experiment: Synergistic activity against VIM-2-producing Escherichia coli assessed as fractional inhibition concentration index in presence of ceftazidime by checkerboard assay; format: functional
Escherichia coli [21] = experiment: Synergistic activity against IMP-1 producing Escherichia coli NUBL-24 infected in CD1 mouse assessed as death rescue at 100 mg/kg, ip measured for 7 days in presence of meropenem relative to control; format: functional; details: time 7 day
Escherichia coli [22] = experiment: Synergistic activity against NDM-1-producing Escherichia coli RC0089 assessed as fractional inhibition concentration index in presence of meropenem by CLSI-based assay; format: functional
Escherichia coli [23] = experiment: Antibacterial activity against NDM-1-producing Escherichia coli RC0089 incubated for 16 to 20 hrs in presence of meropenem CLSI-based assay; format: functional; details: time 16-20 hrs
[24] = Binding affinity to bacterial Metallo-beta-lactamase IMP-1 (unknown origin) using FC5 as substrate preincubated for 15 min followed by substrate addition by fluorescence based assay; set-up: species or system Bacteria
Escherichia coli [25] = experiment: Antibacterial activity against NDM-1-producing Escherichia coli in presence of meropenem; format: functional
[26] = molecular target: T1, Metallo-beta-lactamase type 2; experiment: Inhibition of bacterial NDM-1 (unknown origin) using nitrocefin as substrate incubated for 10 mins followed by substrate addition by absorbance based assay
[27] = Inhibition of bacterial Metallo-beta-lactamase VIM-4 (unknown origin); set-up: species or system Bacteria
Beta-lactamase VIM-1 = Beta-lactamase VIM-1 (Bacteria, UniProt Q8GDC1); experiment: Inhibition of bacterial Metallo-beta-lactamase VIM-1 (unknown origin)
[28] = Binding affinity to bacterial Metallo-beta-lactamase VIM-2 (unknown origin) assessed as inhibition constant; set-up: species or system Bacteria

T1 sequence (C7C422 whole entry): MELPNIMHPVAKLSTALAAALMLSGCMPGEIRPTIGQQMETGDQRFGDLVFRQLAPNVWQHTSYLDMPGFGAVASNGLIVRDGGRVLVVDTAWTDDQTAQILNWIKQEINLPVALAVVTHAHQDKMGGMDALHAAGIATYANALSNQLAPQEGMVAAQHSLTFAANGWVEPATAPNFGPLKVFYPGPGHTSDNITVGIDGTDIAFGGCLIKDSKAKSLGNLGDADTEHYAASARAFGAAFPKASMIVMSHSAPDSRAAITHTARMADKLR
Angiotensin-converting enzyme, sequence (P12821 whole entry): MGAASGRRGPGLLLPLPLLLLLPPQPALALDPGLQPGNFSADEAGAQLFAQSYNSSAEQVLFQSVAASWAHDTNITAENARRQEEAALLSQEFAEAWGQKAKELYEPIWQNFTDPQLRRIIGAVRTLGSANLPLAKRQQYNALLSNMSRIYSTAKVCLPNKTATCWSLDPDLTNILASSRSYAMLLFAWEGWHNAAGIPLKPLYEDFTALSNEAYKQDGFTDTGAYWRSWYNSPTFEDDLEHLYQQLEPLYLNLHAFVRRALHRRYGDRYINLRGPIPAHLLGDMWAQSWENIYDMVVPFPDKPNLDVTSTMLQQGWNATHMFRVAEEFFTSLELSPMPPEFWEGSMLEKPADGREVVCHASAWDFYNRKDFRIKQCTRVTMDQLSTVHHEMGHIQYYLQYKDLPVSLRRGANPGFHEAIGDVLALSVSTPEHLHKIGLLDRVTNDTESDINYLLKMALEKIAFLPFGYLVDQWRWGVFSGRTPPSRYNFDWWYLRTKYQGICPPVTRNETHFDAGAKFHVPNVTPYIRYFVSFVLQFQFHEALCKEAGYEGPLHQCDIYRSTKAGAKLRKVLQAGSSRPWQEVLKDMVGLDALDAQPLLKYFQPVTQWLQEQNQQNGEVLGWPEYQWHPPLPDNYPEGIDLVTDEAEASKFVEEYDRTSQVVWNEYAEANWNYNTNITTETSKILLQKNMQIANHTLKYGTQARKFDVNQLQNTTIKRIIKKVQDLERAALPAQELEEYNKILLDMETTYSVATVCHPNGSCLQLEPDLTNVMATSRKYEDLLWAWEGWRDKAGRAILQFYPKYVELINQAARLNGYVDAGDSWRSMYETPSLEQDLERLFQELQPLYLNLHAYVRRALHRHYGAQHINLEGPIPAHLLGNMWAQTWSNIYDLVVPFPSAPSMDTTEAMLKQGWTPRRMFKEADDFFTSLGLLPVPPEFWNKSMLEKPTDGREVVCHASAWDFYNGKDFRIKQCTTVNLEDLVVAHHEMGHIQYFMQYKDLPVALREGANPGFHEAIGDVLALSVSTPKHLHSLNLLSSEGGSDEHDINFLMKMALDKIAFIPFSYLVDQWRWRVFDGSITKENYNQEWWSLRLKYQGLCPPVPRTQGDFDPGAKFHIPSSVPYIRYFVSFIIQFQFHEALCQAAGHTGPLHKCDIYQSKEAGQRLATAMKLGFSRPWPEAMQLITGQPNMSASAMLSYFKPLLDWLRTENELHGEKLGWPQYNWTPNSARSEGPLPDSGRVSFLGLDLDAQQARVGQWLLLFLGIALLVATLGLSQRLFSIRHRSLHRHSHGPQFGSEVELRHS

Structure (SMILES): CC1=C[C@@]2(C)[C@@H](/C(C)=C/[C@]3(C)O[C@H](C)[C@@]4(C)O[C@H]43)[C@](C)([C@@H](O)[C@@H](C)C(=O)C(C)C)[C@H]2[C@]2(C)O[C@H]12
- IC50 [1]: 12.1 µM
- MIC50 (Enterobacteriaceae [2]): 32 µM (≈ 15.1 µg/mL)
- Kd [3]: 11.8 µM

Structure (SMILES): CN(C[C@H](O)[C@@H](O)[C@H](O)[C@H](O)CO)C(=O)c1ccc(CN(Cc2ccccn2)Cc2ccccn2)nc1
- IC50 at 24 h [4]: > 100 µM

Structure (SMILES): COP(=O)(CCSC(C)=O)NCc1ccccn1 (stereo not given)
- IC50 [5]: 86 µM
- IC50 [6]: 2.2 µM

Structure (SMILES): COC(=O)[C@H]1CN(C(=O)CN(Cc2ccccn2)Cc2ccccn2)C[C@@H]1c1ccc(OCc2ccccc2)c(OC)c1 (racemic)
- IC50 at 24 h [7]: > 128 µM
- fractional inhibitory concentration index (FICI) (Enterobacteriaceae [8]): 0.01
- IC50 [9]: 51 µM
- Ki [10]: 4.6 µM

Structure (SMILES): Cc1oc(C)c(S(N)(=O)=O)c1C(=O)O
- LD50 at 168 h [14]: > 1000 mg/kg
- LD50 at 168 h [15]: 246 mg/kg
- fractional inhibitory concentration index (FICI) (Klebsiella pneumoniae): 0.19
- Activity (HeLa): > 50%
- Ki [16]: 0.22 µM
- IC50 [17]: > 1000 µM
- fractional inhibitory concentration index (FICI) (Escherichia coli [18]): 0.11
- Ki [19]: 2.81 µM
- fractional inhibitory concentration index (FICI) (Escherichia coli [20]): 0.31
- Activity (Escherichia coli [21]): 90%

Structure (SMILES): CC(C)c1cccc2c(-c3ccc(F)cc3)c(C(=O)O)[nH]c12
- fractional inhibitory concentration index (FICI) (Escherichia coli [22]): 0.258
- MIC (Escherichia coli [23]): 16 µg/mL
- IC50 [24]: 0.14 µM

Structure (SMILES): CC(C)c1cc2c(c(O)c1O)[C@@]1(C(=O)O)CCCC(C)(C)[C@@H]1CC2 [CARNOSIC ACID]
- MIC (Escherichia coli [25]): 4 µg/mL

The next lines start with results.

- IC50 [13]: 0.096 µM
Structure (SMILES): CO[C@H]1C(=O)N2C(C(=O)O)=C(CSc3nc4ccccc4s3)CS[C@H]12
- Activity (Vero C1008): > 60%
- fractional inhibitory concentration index (FICI) (Escherichia coli [11]): 0.02
- fractional inhibitory concentration index (FICI) (Escherichia coli [12]): 0.031
- Activity (L929): > 60%

- IC50 [26]: 0.38 µM
Structure (SMILES): O=C(O)c1cccc2oc(-c3ccc4cc(OCc5ccccc5)ccc4c3O)nc12

- IC50 [26]: 7.6 µM
Structure (SMILES): O=C(Cc1ccccc1)N[C@@H]1C(=O)N2C(C(=O)O)=C(CSc3cccc[n+]3[O-])CS[C@H]12

- IC50 [27]: 2.1 µM
- IC50 [6]: 0.08 µM
- IC50 (Beta-lactamase VIM-1): 1.61 µM
- Ki [28]: 0.038 µM
Structure (SMILES): O=C(O)c1ccccc1CCn1c(-c2cccc(-c3ccccc3)c2)n[nH]c1=S
